Measured values: patent US20090105301A1, “9A-SUBSTITUTED AZALIDES FOR THE TREATMENT OF MALARIA” (priority 2006, published 2009)
In brackets after ≈: the same amount, converted by molar mass. Where a name gives a salt, the structure may show the parent alone.

Columns and labels:
Assay type in all cases: cell-based, Plasmodium falciparum
[1] = test system: P. falciparum D6 (CDC/Sierra Leone I, D-6); experiment: In vitro screening protocol I, [3H]-hypoxanthine incorporation, D6; conditions: In vitro screening protocol I, P. falciparum D6; for IC50: Plasmodium falciparum, read-out: IC50 D6
Excerpt: (§1) Agents Chemother. 27 (4) (1985) 525-530). The system was limited to the assessment of the intrinsic activity against the erythrocytic asexual life cycle (blood schizontocides). Two Plasmodium falciparum clones from CDC/Indochina III (W-2) and CDC/Sierra Leone I (D-6) (Oduola A M, Weatherly N F, Bowdre J H, Desjardins R E. Plasmodium falciparum: cloning by single-erythrocyte micromanipulation and heterogeneity in vitro. Exp Parasitol. 66 (1) (1988) 86-95) were used for all assays. TM91C235, a multiple drug resistant isolate from Thailand (Antimicrob. Agents Chemother. 46 (8) (2002) 2627 and Antimicrob. Agents Chemother. 43 (3) (1999) 598-602), was used for the prescreening assay. W-2 is resistant to chloroquine, quinine, and pyrimethamine and susceptible to mefloquine. D-6 tends to be more resistant to mefloquine and susceptible to chloroquine, quinine, and pyrimethamine. All documents cited in this paragraph are incorporated by reference in their entirety.
(§2) All parasites were maintained in continuous long term cultures in RPMI-1640 medium supplemented with 6% washed human A positive (A+)(erythrocytes, 25 mM Hepes, […], and 10% heat inactivated A+ human plasma or ALBUMAX® (lipid-rich bovine serum albumin; Invitrogen, Carlsbad, Calif.). All cultures and assays were conducted at 37° C. under an atmosphere of 5% CO2 and 5% O2, with a balance of N2.
(§3) The prescreening assay uses TM91C235 diluted at a 0.4% parasitemia in a 1% hematocrit in folic acid free and p-aminobenzoic acid free media RPMI-1640 and ALBUMAX®. […] The compound is further diluted in folate free (FF) culture medium with ALBUMAX® for the first initial starting concentration. The rest of the stock drug solution was kept at −70° C. The isolate was preexposed, in duplicate, at three concentrations (25,000 ng/ml, 2,500 ng/ml, and […]) of the test compound for 48 hr in a 96-well microtiter plate (MTP) using the BIOMEK® 2000 automated laboratory workstation. Each MTP contains chloroquine as control to assess the relative activity of the compound and to monitor the response of TM91C235.
(§4) After the preincubation, [^3H]-hypoxanthine was added to each well of the MTP. (The assay relies on the incorporation of radiolabeled hypoxanthine by the parasites, which indicates reproduction, and inhibition of isotope incorporation was attributed to activity of known or candidate antimalarial drugs). After 72 hours of total incubation time, the MTP were frozen to lyse the erythrocytes and parasites. The parasite DNA was recovered by harvesting the lysate onto glass-fiber filter plates using a Packard FilterMate™ Cell Harvester. The radioactivity was counted on a Packard TopCount™ microplate scintillation counter.
(§5) The serial dilution assay was conducted using the same assay conditions and stock solution of the compound used for the preliminary screen, described above. Both the D-6 and the W-2 clones were used. The compounds were diluted two-fold over 11 different concentration ranges with a starting concentration that was based on the preliminary screen. For each drug, the concentration response profile was determined and 50% inhibitory concentrations (IC50) were determined by using a non-linear, logistic dose response analysis program. […] For each assay, the IC50 for each clone was determined against the known antimalarials chloroquine and mefloquine. These control values established the compound's relative parasite susceptibility profile compared to known antimalarials. […]

P. falciparum TM91C235 = experiment: In vitro screening protocol I, [3H]-hypoxanthine incorporation, TM91C235; conditions: In vitro screening protocol I, P. falciparum TM91C235; for IC50: Plasmodium falciparum, read-out: IC50 TM91C235
Excerpt: as §1, §2, §3, §4, §5

[2] = test system: P. falciparum W2 (CDC/Indochina III, W-2); experiment: In vitro screening protocol I, [3H]-hypoxanthine incorporation, W2; conditions: In vitro screening protocol I, P. falciparum W2; for IC50: Plasmodium falciparum, read-out: IC50 W2
Excerpt: as §1, §2, §3, §4, §5

Row | IC50 [1] [µg/mL] | IC50 (P. falciparum TM91C235) [µg/mL] | IC50 [2] [µg/mL] | Compound | IC50 D6 [1] | IC50 TM91C235 (P. falciparum TM91C235) | IC50 W2 [2]
1 | 1 to 2.5 | 1 to 2.5 | 1 to 2.5 | CC[C@H]1OC(=O)[C@H](C)[C@@H](O)[C@H](C)[C@@H](O[C@@H]2O[C@H](C)C[C@H](N(C)C)[C@H]2O)[C@](C)(O)C[C@@H](C)CN(CCCNC(=O)Cc2cccc3ccccc23)[C@H](C)[C@@H](O)[C@]1(C)O [Example 36, 9a-{3-[(Naphtalen-1-yl-acetyl)amino]propyl}-3-O-decladinosyl-9a-aza-9-deoxo-9-dihydro-9a-homoerythromycin A Formiate Salt] | – | – | –
2 | 0.2 to 1 | 0.2 to 1 | 0.2 to 1 | CC[C@H]1OC(=O)[C@H](C)[C@@H](O)[C@H](C)[C@@H](O[C@@H]2O[C@H](C)C[C@H](N(C)C)[C@H]2O)[C@](C)(O)C[C@@H](C)CN(CCCNC(=O)[C@H](C)c2ccc3cc(OC)ccc3c2)[C@H](C)[C@@H](O)[C@]1(C)O [Example 37, 9a-[3-({(2S)-2-[6-(methyloxy)-naphthalen-2-yl]propanoyl}amino)propyl]-3-O-decladinosyl-9a-aza-9-deoxo-9-dihydro-9a-homoerythromycin A Formiate Salt] | – | – | –
3 | 0.1 to 0.2 (≈ 0.106 to 0.211 µM) | < 0.1 | < 0.1 | CC[C@H]1OC(=O)[C@H](C)[C@@H](O[C@H]2C[C@@](C)(OC)[C@@H](O)[C@H](C)O2)[C@H](C)[C@@H](O[C@@H]2O[C@H](C)C[C@H](N(C)C)[C@H]2O)[C@](C)(O)C[C@@H](C)CN(CCC(=O)NCc2ccc3ccccc3c2)[C@H](C)[C@@H](O)[C@]1(C)O [Example 43] | – | – | –
4 | < 0.1 | < 0.1 | < 0.1 | CC[C@H]1OC(=O)[C@H](C)[C@@H](O[C@H]2C[C@@](C)(OC)[C@@H](O)[C@H](C)O2)[C@H](C)[C@@H](O[C@@H]2O[C@H](C)C[C@H](N(C)C)[C@H]2O)[C@](C)(O)C[C@@H](C)CN(CCCNc2ccnc3cc(Cl)ccc23)[C@H](C)[C@@H](O)[C@]1(C)O [Example 21A, 9a-{3-[(7-Chloro-quinolin-4-yl)amino]propyl}-9-deoxo-9-dihydro-9a-aza-9a-homoerythromycin A] | – | – | –
5 | 0.1 to 0.2 (≈ 0.11 to 0.22 µM) | < 0.1 | < 0.1 | CC[C@H]1OC(=O)[C@H](C)[C@@H](O[C@H]2C[C@@](C)(OC)[C@@H](O)[C@H](C)O2)[C@H](C)[C@@H](O[C@@H]2O[C@H](C)C[C@H](N(C)C)[C@H]2O)[C@](C)(O)C[C@@H](C)CN(CCCNCCCc2ccccc2)[C@H](C)[C@@H](O)[C@]1(C)O [Example 19, 9a-{3-[(3-Phenylpropyl)amino]propyl}-9-deoxo-9-dihydro-9a-aza-9a-homoerythromycin A] | – | – | –
6 | 2.5 to 2.8 | 0.2 to 1 | 1 to 2.5 | CC[C@H]1OC(=O)[C@H](C)[C@@H](O[C@H]2C[C@@](C)(OC)[C@@H](O)[C@H](C)O2)[C@H](C)[C@@H](O[C@@H]2O[C@H](C)C[C@H](N(C)C)[C@H]2O)[C@](C)(O)C[C@@H](C)CN(CCCNC(=O)c2ocnc2C)[C@H](C)[C@@H](O)[C@]1(C)O [Example 34, 9a-(3-{[(4-Methyl-1,3-oxazol-5-yl)carbonyl]amino}propyl)-9a-aza-9-deoxo-9-dihydro-9a-homoerythromycin A Formiate Salt] | – | – | –
7 | 1 to 2.5 (≈ 1.1 to 2.76 µM) | 0.2 to 1 (≈ 0.221 to 1.1 µM) | 1 to 2.5 (≈ 1.1 to 2.76 µM) | CC[C@H]1OC(=O)[C@H](C)[C@@H](O[C@H]2C[C@@](C)(OC)[C@@H](O)[C@H](C)O2)[C@H](C)[C@@H](O[C@@H]2O[C@H](C)C[C@H](NC)[C@H]2O)[C@](C)(O)C[C@@H](C)CN(CCCNc2ccnc3ccccc23)[C@H](C)[C@@H](O)[C@]1(C)O [Example 25, 9a-[3-(Quinolin-4-yl-amino)propyl]-3′-N-demethyl-9-deoxo-9-dihydro-9a-aza-9a-homoerythromycin A] | – | – | –
8 | < 0.1 | < 0.1 | < 0.1 | CC[C@H]1OC(=O)[C@H](C)[C@@H](O)[C@H](C)[C@@H](O[C@@H]2O[C@H](C)C[C@H](N(C)C)[C@H]2O)[C@](C)(O)C[C@@H](C)CN(CCCNc2ccnc3cc(Cl)ccc23)[C@H](C)[C@@H](O)[C@]1(C)O [Example 23] | – | – | –

The next lines start with the molecule.

Row | Compound | IC50 [1] [µg/mL] | IC50 (P. falciparum TM91C235) [µg/mL] | IC50 [2] [µg/mL] | IC50 D6 [1] | IC50 TM91C235 (P. falciparum TM91C235) | IC50 W2 [2]
9 | CCOc1ccc2ccccc2c1CNCCCN1C[C@H](C)C[C@@](C)(O)[C@H](O[C@@H]2O[C@H](C)C[C@H](N(C)C)[C@H]2O)[C@@H](C)[C@H](O[C@H]2C[C@@](C)(OC)[C@@H](O)[C@H](C)O2)[C@@H](C)C(=O)O[C@H](CC)[C@@](C)(O)[C@H](O)[C@H]1C [Example 7, 9a-[3-({[2-(Ethyloxy)-naphthalen-1-yl]methyl}amino)propyl]-9-deoxo-9-dihydro-9a-aza-9a-homoerythromycin A] | < 0.1 | < 0.1 | < 0.1 | – | – | –
10 | CC[C@H]1OC(=O)[C@H](C)[C@@H](O[C@H]2C[C@@](C)(OC)[C@@H](O)[C@H](C)O2)[C@H](C)[C@@H](O[C@@H]2O[C@H](C)C[C@H](N(C)C)[C@H]2O)[C@](C)(O)C[C@@H](C)CN(CCCNCc2cccnc2)[C@H](C)[C@@H](O)[C@]1(C)O [Example 12, 9a-{3-[(Pyridine-3-yl-methyl)amino]propyl}-9-deoxo-9-dihydro-9a-aza-9a-homoerythromycin A] | – | – | – | C (200 < X ≦ 1000) | C (200 < X ≦ 1000) | C (200 < X ≦ 1000)
11 | CC[C@H]1OC(=O)[C@H](C)[C@@H](O[C@H]2C[C@@](C)(OC)[C@@H](O)[C@H](C)O2)[C@H](C)[C@@H](O[C@@H]2O[C@H](C)C[C@H](N(C)C)[C@H]2O)[C@](C)(O)C[C@@H](C)CN(CCNCc2cccc3ccccc23)[C@H](C)[C@@H](O)[C@]1(C)O [Example 16, 9a-{2-[(Naphtalen-1-yl-methyl)amino]ethyl}-9-deoxo-9-dihydro-9a-aza-9a-homoerythromycin A] | – | – | – | B (100 < X ≦ 200) | A (X ≦ 100) | A (X ≦ 100)
12 | CC[C@H]1OC(=O)[C@H](C)[C@@H](O)[C@H](C)[C@@H](O[C@@H]2O[C@H](C)C[C@H](N(C)C)[C@H]2O)[C@](C)(O)C[C@@H](C)CN(CCCNCc2cccc3ccccc23)[C@H](C)[C@@H](O)[C@]1(C)O [Example 9, 9a-{3-[(Naphtalen-1-yl-methyl)amino]propyl}-3-O-decladinosyl-9-deoxo-9-dihydro-9a-aza-9a-homoerythromycin A] | – | – | – | A (X ≦ 100) | A (X ≦ 100) | A (X ≦ 100)
13 | CC[C@H]1OC(=O)[C@H](C)[C@@H](O)[C@H](C)[C@@H](O[C@@H]2O[C@H](C)C[C@H](N(C)C)[C@H]2O)[C@](C)(O)C[C@@H](C)CN(CCCNCc2ccncc2)[C@H](C)[C@@H](O)[C@]1(C)O [Example 11, 9a-{3-[(Pyridine-4-yl-methyl)amino]propyl}-3-O-decladinosyl-9-deoxo-9-dihydro-9a-aza-9a-homoerythromycin A] | – | – | – | G (3500 < X ≦ 5000) | F (2800 < X ≦ 3500) | C (200 < X ≦ 1000)
14 | CC[C@H]1OC(=O)[C@H](C)[C@@H](O)[C@H](C)[C@@H](O[C@@H]2O[C@H](C)C[C@H](N(C)C)[C@H]2O)[C@](C)(O)C[C@@H](C)CN(CCCNCc2cccnc2)[C@H](C)[C@@H](O)[C@]1(C)O [Example 13, 9a-{3-[(Pyridine-3-yl-methyl)amino]propyl}-3-O-decladinosyl-9-deoxo-9-dihydro-9a-aza-9a-homoerythromycin A] | – | – | – | G (3500 < X ≦ 5000) | D (1000 < X ≦ 2500) | C (200 < X ≦ 1000)
